What was measured:
Assay in all cases: In vitro combination study with tazemetostat, cell proliferation (Cell Titer Glo)
NCI-H661 = details: 7 days tazemetostat pre-treatment, 6 days co-treatment with second agent
Calu-3 = details: 7 days tazemetostat pre-treatment, 6 days co-treatment with second agent
NCI-H522 = details: 7 days tazemetostat pre-treatment, 6 days co-treatment with second agent
Description: (§1) Initial proliferation studies were performed to determine the IC50 of tazemetostat in each cell line. For the screen, tazemetostat was used at concentrations bracketed around the IC50 value. If 50% inhibitory concentration was not reached then tazemetostat was tested starting at 10 μM.
(§2) In order to study the effect of dual combination of tazemetostat and a second agent on cell proliferation, cells in log-linear phase growth rate were pre-treated with various concentrations of tazemetostat or DMSO for 7 days in flasks, plated in 384-well plates in the absence of compounds and co-treated on day 8 with tazemetostat or DMSO and the second agent serially diluted for additional 6 days (as depicted in FIG. 1). On day 15, plates were developed for endpoint analysis using Cell Titer Glo to measure ATP content, which was used as an indicator of cell viability. DMSO concentration was kept constant throughout the assay at 0.15% v/v.

A427 = details: A427; 7 days tazemetostat pre-treatment, 6 days co-treatment with second agent
HCC827 = details: 7 days tazemetostat pre-treatment, 6 days co-treatment with second agent
Description: as §1, §2
(§3) NCI-H1573 was cultured in DMEM: F12 Medium containing the following components: 0.02 mg/ml insulin, 0.01 mg/ml transferrin, 25 nM sodium selenite, 50 nM Hydrocortisone, 1 ng/ml Epidermal Growth Factor, 0.01 mM ethanolamine, 0.01 mM phosphorylethanolamine, 100 pM triiodothyronine, 0.5% (w/v) bovine serum albumin, 0.5 mM sodium pyruvate, 4.5 mM L-glutamine and 1% v/v Pen/Strep.

NCI-H1993 = details: 7 days tazemetostat pre-treatment, 6 days co-treatment with second agent
NCI-H838 = details: 7 days tazemetostat pre-treatment, 6 days co-treatment with second agent
Description: as §1, §2, §3

NCI-H460 = details: 7 days tazemetostat pre-treatment, 6 days co-treatment with second agent
NCI-H1703 = details: 7 days tazemetostat pre-treatment, 6 days co-treatment with second agent
NCI-H1573 = details: 7 days tazemetostat pre-treatment, 6 days co-treatment with second agent
NCI-H2122 = details: 7 days tazemetostat pre-treatment, 6 days co-treatment with second agent
NCI-H1299 = details: 7 days tazemetostat pre-treatment, 6 days co-treatment with second agent
NCI-H23 = details: 7 days tazemetostat pre-treatment, 6 days co-treatment with second agent
Description: as §1, §2
All cell lines were obtained from American Type Culture Collection (ATCC; Rockville, Md.). […] A427, Calu-3, Calu-6 cell lines were cultured in EMEM+10% Fetal bovine serum (FBS)+1% v/v Penicillin/Streptomycin (P/S).

NCI-H2110 = details: 7 days tazemetostat pre-treatment, 6 days co-treatment with second agent
Description: as §1, §2

Calu-6 = details: 7 days tazemetostat pre-treatment, 6 days co-treatment with second agent
Description: as §1, §2

A549 = details: 7 days tazemetostat pre-treatment, 6 days co-treatment with second agent
Description: as §1, §2

NCI-H2030 = details: 7 days tazemetostat pre-treatment, 6 days co-treatment with second agent
NCI-H1793 = details: 7 days tazemetostat pre-treatment, 6 days co-treatment with second agent

Compound | combinatorial effect with tazemetostat (Loewe volume class) (NCI-H661) | combinatorial effect with tazemetostat (Loewe volume class) (Calu-3) | combinatorial effect with tazemetostat (Loewe volume class) (NCI-H522) | combinatorial effect with tazemetostat (Loewe volume class) (A427) | combinatorial effect with tazemetostat (Loewe volume class) (HCC827) | combinatorial effect with tazemetostat (Loewe volume class) (NCI-H1993) | combinatorial effect with tazemetostat (Loewe volume class) (NCI-H838) | combinatorial effect with tazemetostat (Loewe volume class) (NCI-H460) | combinatorial effect with tazemetostat (Loewe volume class) (NCI-H1703) | combinatorial effect with tazemetostat (Loewe volume class) (NCI-H1573) | combinatorial effect with tazemetostat (Loewe volume class) (NCI-H2122) | combinatorial effect with tazemetostat (Loewe volume class) (NCI-H1299) | combinatorial effect with tazemetostat (Loewe volume class) (NCI-H23) | combinatorial effect with tazemetostat (Loewe volume class) (NCI-H2110) | combinatorial effect with tazemetostat (Loewe volume class) (Calu-6) | combinatorial effect with tazemetostat (Loewe volume class) (A549) | combinatorial effect with tazemetostat (Loewe volume class) (NCI-H2030) | combinatorial effect with tazemetostat (Loewe volume class) (NCI-H1793)
C=CCn1c(=O)c2cnc(Nc3ccc(N4CCN(C)CC4)cc3)nc2n1-c1cccc(C(C)(C)O)n1 [MK-1775] | Syn. (Loewe volumes greater than 1 denoted “synergy”) | Add. (A value between −1 and 1 denoted “additivity”) | Syn. (Loewe volumes greater than 1 denoted “synergy”) | Syn. (Loewe volumes greater than 1 denoted “synergy”) | Add. (A value between −1 and 1 denoted “additivity”) | Add. (A value between −1 and 1 denoted “additivity”) | Add. (A value between −1 and 1 denoted “additivity”) | Add. (A value between −1 and 1 denoted “additivity”) | Syn. (Loewe volumes greater than 1 denoted “synergy”) | Syn. (Loewe volumes greater than 1 denoted “synergy”) | Add. (A value between −1 and 1 denoted “additivity”) | Add. (A value between −1 and 1 denoted “additivity”) | Syn. (Loewe volumes greater than 1 denoted “synergy”) | Add. (A value between −1 and 1 denoted “additivity”) | Syn. (Loewe volumes greater than 1 denoted “synergy”) | Add. (A value between −1 and 1 denoted “additivity”) | Syn. (Loewe volumes greater than 1 denoted “synergy”) | Syn. (Loewe volumes greater than 1 denoted “synergy”)
Cn1cnc2c(F)c(Nc3ccc(Br)cc3Cl)c(C(=O)NOCCO)cc21 [Selumetinib, selumetinib] | Syn. (Loewe volumes greater than 1 denoted “synergy”) | Syn. (Loewe volumes greater than 1 denoted “synergy”) | Syn. (Loewe volumes greater than 1 denoted “synergy”) | Syn. (Loewe volumes greater than 1 denoted “synergy”) | Add. (A value between −1 and 1 denoted “additivity”) | Syn. (Loewe volumes greater than 1 denoted “synergy”) | Syn. (Loewe volumes greater than 1 denoted “synergy”) | Anta. (volumes <−1 denoted “antagonism”) | Syn. (Loewe volumes greater than 1 denoted “synergy”) | Syn. (Loewe volumes greater than 1 denoted “synergy”) | Anta. (volumes <−1 denoted “antagonism”) | Add. (A value between −1 and 1 denoted “additivity”) | Add. (A value between −1 and 1 denoted “additivity”) | Syn. (Loewe volumes greater than 1 denoted “synergy”) | Syn. (Loewe volumes greater than 1 denoted “synergy”) | Add. (A value between −1 and 1 denoted “additivity”) | Add. (A value between −1 and 1 denoted “additivity”) | Syn. (Loewe volumes greater than 1 denoted “synergy”)
Nc1cc(C(F)(F)F)c(-c2cc(N3CCOCC3)nc(N3CCOCC3)n2)cn1 [BKM-120] | Syn. (Loewe volumes greater than 1 denoted “synergy”) | Add. (A value between −1 and 1 denoted “additivity”) | Add. (A value between −1 and 1 denoted “additivity”) | Syn. (Loewe volumes greater than 1 denoted “synergy”) | Add. (A value between −1 and 1 denoted “additivity”) | Syn. (Loewe volumes greater than 1 denoted “synergy”) | Syn. (Loewe volumes greater than 1 denoted “synergy”) | Add. (A value between −1 and 1 denoted “additivity”) | Add. (A value between −1 and 1 denoted “additivity”) | Add. (A value between −1 and 1 denoted “additivity”) | Add. (A value between −1 and 1 denoted “additivity”) | Add. (A value between −1 and 1 denoted “additivity”) | Syn. (Loewe volumes greater than 1 denoted “synergy”) | Add. (A value between −1 and 1 denoted “additivity”) | Add. (A value between −1 and 1 denoted “additivity”) | Add. (A value between −1 and 1 denoted “additivity”) | Add. (A value between −1 and 1 denoted “additivity”) | Syn. (Loewe volumes greater than 1 denoted “synergy”)
O=C(CCCCCCC(=O)Nc1ccccc1)NO [Vorinostat, vorinostat] | Add. (A value between −1 and 1 denoted “additivity”) | Add. (A value between −1 and 1 denoted “additivity”) | Syn. (Loewe volumes greater than 1 denoted “synergy”) | Syn. (Loewe volumes greater than 1 denoted “synergy”) | Add. (A value between −1 and 1 denoted “additivity”) | Add. (A value between −1 and 1 denoted “additivity”) | Add. (A value between −1 and 1 denoted “additivity”) | Syn. (Loewe volumes greater than 1 denoted “synergy”) | Syn. (Loewe volumes greater than 1 denoted “synergy”) | Syn. (Loewe volumes greater than 1 denoted “synergy”) | Add. (A value between −1 and 1 denoted “additivity”) | Add. (A value between −1 and 1 denoted “additivity”) | Syn. (Loewe volumes greater than 1 denoted “synergy”) | Add. (A value between −1 and 1 denoted “additivity”) | Syn. (Loewe volumes greater than 1 denoted “synergy”) | Add. (A value between −1 and 1 denoted “additivity”) | Syn. (Loewe volumes greater than 1 denoted “synergy”) | Syn. (Loewe volumes greater than 1 denoted “synergy”)
